# Measured values as given in patent publication US20240197596A1, “COMPOUNDS USEFUL AS HAIR DYES” (National University of Singapore, priority 2021, published 2024).
# Tested on: cysteine heptapeptide (Ac-RFAACAA-COOH) and lysine heptapeptide (Ac-RFAAKAA-COOH)
# Assay: Direct Peptide Reactivity Assay (DPRA)
# Type: biochemical
# Details: from mean peptide depletion
# Protocol: The assay was conducted on N1-N13 in triplicates with the respective solvent used to prepare compound stock solutions as control. A stock concentration of 20 mM was prepared instead of the recommended 100 mM by OECD due to scarcity of compounds. The various constituents of the incubation mixture were freshly prepared to prevent stability issues that could cause variations in results. An incubation mixture with the recommended peptide to test compound ratios of 1:10 for cysteine heptapeptide and 1:50 for lysine heptapeptide (OECD. Test No. 442C: In Chemico Skin Sensitisation 2020) was prepared then incubated at 25° C. for 24 h in a shaking incubator (Toxicol Sci. 2012; 129(2):421-31).
# At 24 h, the incubation mixture was quenched with 75 μL of 95% ACN/H2O containing 200 μM Leucine Enkephalin (Internal Standard). For cysteine DPRA, 100 μL of quenched mixture was spiked into 90 μL of 2% ACN/H2O and 10 μL of freshly prepared 0.016 mM 1,4-Dithiothreitol (DTT) solution. DTT maintains the integrity of thiol groups by preventing the dimerization of thiol groups and degradation of di-adducts to mono-adducts. This second mixture was then incubated at 40° C. for 30 min in a shaking incubator. For lysine DPRA, 10 μL of quenched mixture was spiked into 190 μL of 2% ACN/H2O. All 200 μL of mixtures were transferred into a 96-well plate and sent for analysis with Liquid Chromatography-Tandem Mass Spectrometry (LC-MS/MS).
row,Structure (SMILES),sensitizing potential (DPRA)
1,"COCCOc1cc(N)ccc1N [Compound N7, 2-(2-methoxyethoxy)benzene-1,4-diamine]",moderate sensitization
2,"CCC(=O)COc1cc(N)ccc1N [Compound N11, 1-(2,5-diaminophenoxy)butan-2-one]",moderate sensitizers
3,"CNCCOc1cc(N)ccc1N [Compound N13, 2-(2-(methylamino)ethoxy)benzene-1,4-diamine]",moderate sensitizers
